# Reference: ChEMBL document CHEMBL1201862, “PubChem BioAssay data set” (2004)
#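 The compound was tested at five concentrations on cells cultured in 96-well plates, with a 48-hour exposure period. The concentration for 50% growth inhibition is given as GI50.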 Active and inactive are the calls of the source. Rule as the data show it: active = GI50 up to about 1.1 µM and inactive = higher.
# Legend:
# Experiment in all cases: inhibition of tumour cell growth, NCI panel, 48 h
# 786-0 = system: 786-0
# A498 = system: A498
# A549 = system: A549
# ACHN = system: ACHN
# BT-549 = system: BT-549
# CAKI-1 = system: CAKI-1
# CCRF-CEM = system: CCRF-CEM
# COLO 205 = system: COLO 205
# DU-145 = system: DU-145
# EKVX = system: EKVX
# HCC 2998 = system: HCC 2998
# HCT-116 = system: HCT-116
# HCT-15 = system: HCT-15
# HOP-62 = system: HOP-62
# HOP-92 = system: HOP-92
# HT-29 = system: HT-29
# Hs-578T = system: Hs-578T
# IGROV-1 = system: IGROV-1
# K562 = system: K562
# KM12 = system: KM12
# LOX IMVI = system: LOX IMVI
# M14 = system: M14
# MCF7 = system: MCF7
# MDA-MB-231 = system: MDA-MB-231
# MDA-MB-435 = system: MDA-MB-435
# MOLT-4 = system: MOLT-4
# NCI-H226 = system: NCI-H226
# NCI-H23 = system: NCI-H23
# NCI-H522 = system: NCI-H522
# NCI/ADR-RES = system: NCI/ADR-RES
# OVCAR-3 = system: OVCAR-3
# OVCAR-4 = system: OVCAR-4
# OVCAR-5 = system: OVCAR-5
# OVCAR-8 = system: OVCAR-8
# PC-3 = system: PC-3
# RPMI-8226 = system: RPMI-8226
# RXF 393 = system: RXF 393
# SF-268 = system: SF-268
# SF-295 = system: SF-295
# SF-539 = system: SF-539
# SK-MEL-28 = system: SK-MEL-28
# SK-MEL-2 = system: SK-MEL-2
# SK-MEL-5 = system: SK-MEL-5
# SK-OV-3 = system: SK-OV-3
# SN12C = system: SN12C
# SNB-19 = system: SNB-19
# SNB-75 = system: SNB-75
# SR = system: SR
# SW-620 = system: SW-620
# T47D = system: T47D
# TK-10 = system: TK-10
# U-251 = system: U-251
# UACC-257 = system: UACC-257
# UACC-62 = system: UACC-62
# UO-31 = system: UO-31
# HL-60 = system: HL-60
# Malme-3M = system: Malme-3M
# NCI-H460 = system: NCI-H460
smiles,measurement,setting,value
CCCCI(O)OS(=O)(=O)c1ccc(C)cc1,GI50,786-0,> 100 µM (inactive)
same,GI50,A498,> 100 µM (inactive)
same,GI50,A549,66.2 µM (inactive)
same,GI50,ACHN,> 100 µM (inactive)
same,GI50,BT-549,> 100 µM (inactive)
same,GI50,CAKI-1,> 100 µM (inactive)
same,GI50,CCRF-CEM,53.5 µM (inactive)
same,GI50,COLO 205,> 100 µM (inactive)
same,GI50,DU-145,> 100 µM (inactive)
same,GI50,EKVX,38 µM (inactive)
same,GI50,HCC 2998,> 100 µM (inactive)
same,GI50,HCT-116,> 100 µM (inactive)
same,GI50,HCT-15,> 100 µM
same,GI50,HOP-62,> 100 µM (inactive)
same,GI50,HOP-92,> 100 µM (inactive)
same,GI50,HT-29,> 100 µM (inactive)
same,GI50,Hs-578T,> 100 µM (inactive)
same,GI50,IGROV-1,28.2 µM (inactive)
same,GI50,K562,67.8 µM (inactive)
same,GI50,KM12,56.8 µM (inactive)
same,GI50,LOX IMVI,13.9 µM (inactive)
same,GI50,M14,> 100 µM (inactive)
same,GI50,MCF7,> 100 µM (inactive)
same,GI50,MDA-MB-231,> 100 µM (inactive)
same,GI50,MDA-MB-435,> 100 µM (inactive)
same,GI50,MOLT-4,> 100 µM (inactive)
same,GI50,NCI-H226,> 100 µM (inactive)
same,GI50,NCI-H23,> 100 µM (inactive)
same,GI50,NCI-H522,22.5 µM (inactive)
same,GI50,NCI/ADR-RES,29.6 µM (inactive)
same,GI50,OVCAR-3,> 100 µM (inactive)
same,GI50,OVCAR-4,> 100 µM (inactive)
same,GI50,OVCAR-5,> 100 µM (inactive)
same,GI50,OVCAR-8,> 100 µM (inactive)
same,GI50,PC-3,> 100 µM (inactive)
same,GI50,RPMI-8226,50.6 µM (inactive)
same,GI50,RXF 393,> 100 µM (inactive)
same,GI50,SF-268,> 100 µM (inactive)
same,GI50,SF-295,> 100 µM (inactive)
same,GI50,SF-539,> 100 µM (inactive)
same,GI50,SK-MEL-28,> 100 µM (inactive)
same,GI50,SK-MEL-2,> 100 µM (inactive)
same,GI50,SK-MEL-5,> 100 µM (inactive)
same,GI50,SK-OV-3,> 100 µM (inactive)
same,GI50,SN12C,> 100 µM (inactive)
same,GI50,SNB-19,> 100 µM (inactive)
same,GI50,SNB-75,73.5 µM (inactive)
same,GI50,SR,55.3 µM (inactive)
same,GI50,SW-620,> 100 µM (inactive)
same,GI50,T47D,> 100 µM (inactive)
same,GI50,TK-10,> 100 µM (inactive)
same,GI50,U-251,> 100 µM (inactive)
same,GI50,UACC-257,> 100 µM (inactive)
same,GI50,UACC-62,89.1 µM (inactive)
same,GI50,UO-31,23.9 µM (inactive)
O=C(O)CCC1NC(/C(=C/c2ccccc2O)NC(=O)c2ccccc2)OC1=O (configuration not stated),GI50,786-0,46.7 µM (inactive)
same,GI50,A498,> 100 µM (inactive)
same,GI50,A549,> 100 µM (inactive)
same,GI50,ACHN,33 µM (inactive)
same,GI50,BT-549,72.6 µM (inactive)
same,GI50,CAKI-1,> 100 µM (inactive)
same,GI50,CCRF-CEM,> 100 µM (inactive)
same,GI50,COLO 205,> 100 µM (inactive)
same,GI50,DU-145,> 100 µM (inactive)
same,GI50,EKVX,> 100 µM (inactive)
same,GI50,HCC 2998,> 100 µM (inactive)
same,GI50,HCT-116,67.3 µM (inactive)
same,GI50,HCT-15,> 100 µM
same,GI50,HL-60,> 100 µM (inactive)
same,GI50,HOP-62,17.5 µM (inactive)
same,GI50,HOP-92,> 100 µM (inactive)
same,GI50,HT-29,> 100 µM (inactive)
same,GI50,Hs-578T,43.8 µM (inactive)
same,GI50,IGROV-1,30.5 µM (inactive)
same,GI50,K562,> 100 µM (inactive)
same,GI50,KM12,4.57 µM (inactive)
same,GI50,LOX IMVI,> 100 µM (inactive)
same,GI50,M14,> 100 µM (inactive)
same,GI50,MCF7,3.39 µM (inactive)
same,GI50,MDA-MB-231,46.9 µM (inactive)
same,GI50,MDA-MB-435,15.8 µM (inactive)
same,GI50,MOLT-4,> 100 µM (inactive)
same,GI50,Malme-3M,> 100 µM (inactive)
same,GI50,NCI-H226,72.3 µM (inactive)
same,GI50,NCI-H23,> 100 µM (inactive)
same,GI50,NCI-H460,> 100 µM (inactive)
same,GI50,NCI-H522,64.1 µM (inactive)
same,GI50,NCI/ADR-RES,88.5 µM (inactive)
same,GI50,OVCAR-3,> 100 µM (inactive)
same,GI50,OVCAR-4,> 100 µM (inactive)
same,GI50,OVCAR-5,> 100 µM (inactive)
same,GI50,OVCAR-8,46.8 µM (inactive)
same,GI50,PC-3,> 100 µM (inactive)
same,GI50,RPMI-8226,> 100 µM (inactive)
same,GI50,RXF 393,34.2 µM (inactive)
same,GI50,SF-268,61.5 µM (inactive)
same,GI50,SF-295,35.4 µM (inactive)
same,GI50,SF-539,95.3 µM (inactive)
same,GI50,SK-MEL-28,> 100 µM (inactive)
same,GI50,SK-MEL-2,> 100 µM (inactive)
same,GI50,SK-MEL-5,> 100 µM (inactive)
same,GI50,SK-OV-3,44.2 µM (inactive)
same,GI50,SN12C,> 100 µM (inactive)
same,GI50,SNB-19,32.5 µM (inactive)
same,GI50,SNB-75,23.2 µM (inactive)
same,GI50,SW-620,> 100 µM (inactive)
same,GI50,T47D,16 µM (inactive)
same,GI50,TK-10,56.1 µM (inactive)
same,GI50,U-251,37.2 µM (inactive)
same,GI50,UACC-257,27.5 µM (inactive)
same,GI50,UACC-62,> 100 µM (inactive)
same,GI50,UO-31,18 µM (inactive)
